Results from patent publication US4868195A, “Novel enolamides, pharmaceutical compositions and methods of use thereof for activity as modulators of the arachidonic acid cascade” (Warner-Lambert Company, priority 1988, dated 1989).
Several values for one entry are separate records, joined by “and”; a condition that tells them apart may be missing. Identical values can stand only once.

How the values were obtained:
[1] = biological target: T1, human leukocyte 5-lipoxygenase (Homo sapiens, UniProt P09917); assay: 5-lipoxygenase inhibition in human leukocytes, 5-HETE formation (5LOA; methods 5LOA1 and 5LOA2); format: cell-based; conditions: 5-HETE formation, human leukocytes; read-out: Concentration (M) for 50.0 % Inhibition, IC (5LOA)
T1 construct: endogenous in cells; host or cells: intact leukocytes isolated from human blood
T1 sequence (P09917 1-674): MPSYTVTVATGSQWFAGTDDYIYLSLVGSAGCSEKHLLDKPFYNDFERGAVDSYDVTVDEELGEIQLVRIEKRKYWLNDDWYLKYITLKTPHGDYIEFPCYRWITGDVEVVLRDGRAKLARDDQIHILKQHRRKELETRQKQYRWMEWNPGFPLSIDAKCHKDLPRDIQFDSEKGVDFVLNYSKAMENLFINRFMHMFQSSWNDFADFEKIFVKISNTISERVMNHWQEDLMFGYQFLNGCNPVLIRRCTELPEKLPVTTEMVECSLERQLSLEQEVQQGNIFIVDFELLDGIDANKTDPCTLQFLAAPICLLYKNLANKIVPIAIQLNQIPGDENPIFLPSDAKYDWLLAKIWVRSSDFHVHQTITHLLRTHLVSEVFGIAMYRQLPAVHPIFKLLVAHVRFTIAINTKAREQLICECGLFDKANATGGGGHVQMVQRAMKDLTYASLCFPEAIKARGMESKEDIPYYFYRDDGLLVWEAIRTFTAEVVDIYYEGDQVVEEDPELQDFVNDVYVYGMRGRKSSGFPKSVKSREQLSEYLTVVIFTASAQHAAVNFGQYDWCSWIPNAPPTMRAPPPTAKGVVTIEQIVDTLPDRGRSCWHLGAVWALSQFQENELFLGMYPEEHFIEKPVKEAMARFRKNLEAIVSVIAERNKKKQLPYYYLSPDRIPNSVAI
From the text: To Evaluate the Effect of Each Compounds as a 5-Lipoxygenase Inhibitor in Comparison to Standard Reference Agents in Human Leukocytes (5LOA1)
The purpose of this assay is to evaluate the activity of each compound as an inhibitor of human leukocyte 5-lipoxygenase.
Arachidonic acid and calcium ionophore A23187 are obtained from Sigma (St. Louis, MO). Silica gel plates, GF are obtained from Analtech (Newark, DE). Arachidonic acid, (1-^14 C) and 5-HETE (^3 H), 5 (S)-hydroxy-6-trans,8,11,14-cis eicosatetraenoic acid, are obtained from New England Nuclear (Boston, MA). Six percent Dextran-70 in 0.9% NaCl is obtained from Cutter Labs (Berkeley, CA).
Preparation of Leukocytes
Fresh blood from normal adult men who had not received any drugs for at least the previous five days is obtained by the Community Research Clinic (WL/PD) using venipuncture and collected into heparinized vacuotainer tubes. To every 100 ml of pooled blood is added 25 ml of dextran solution (6% dextran -70 in 0.9% sodium chloride containing 3% dextrose) and this is mixed gently in a plastic cylinder. The mixture is left to stand at room temperature for at least 90 minutes. The upper layer which is rich in leukocytes and platelets is then carefully decanted into 50 ml plastic tubes and centrifuged at about 100×g for eight minutes in an IEC centrifuge and rotor number 269 (about 600 rpm). The supernatant fluid is discarded and the pellet is resuspended in 10 ml of 0.87% ammonium chloride for exactly two minutes. This procedure is to lyse completely contaminating red blood cells. Leukocytes are then separated by centrifugation for ten minutes. The pellet is washed three times by suspension in 20 ml PBS (sodium chloride, 7.1 g; Na2 HPO4, 1.15 g; KH2 PO4, 0.2 g, and KCl, 0.2 g/L) and centrifuged as before. The final pellet is suspended in PBS containing 0.87 mM CaCl2. Viability of the cells is then checked using trypan blue exclusion method and is found to be over 90%.
5-Lipoxygenase Enzyme Assay
Leukocyte cells in suspension (0.98 ml) are incubated with or without test compounds for five minutes at 37° C. in a shaking water bath. At this time a 17 μl mixture is prepared per 1 ml of cell suspension: 100 mM arachidonic acid, 1 μl, 0.05 μCi ^14 C-arachidonic acid in 5 μl; 1 mM calcium ionophore A23187, 10 μl (1). This mixture is added and the incubation continued for five minutes. The reaction is stopped by adding four volumes of absolute ethanol and the mixture is kept in ice for 30 minutes. The floculated precipitate is separated by centrifugation at about 37,000×g for 20 minutes (Beckman Instruments rotor number 40). The alcohol extract is taken to dryness under a stream of nitrogen and the residue is dissolved in 100-200 μl absolute ethanol. At the time any turbidity is removed by centrifugation. An aliquot (25-50 μl) is applied onto 20×20 cm silica gel TLC plate and developed using the following solvent system: diethyl ether, petroleum ether (2040° C.), acetic acid (50:50:1 v/v). Zones of 1 cm apart are scraped from the TLC plate and transferred to mini-vials. Methanol (0.5 ml) is added to dissolve the radioactivity adsorbed to the silica gel and scintillation fluid (H. P., Beckman), 5 ml is then added and vials are counted in a liquid scintillation counter. A sample of ^3 H-5-HETE is applied and used for the identification of the formed 5-HETE.
Total radioactivity in the test as well as the control samples are normalized and the amount of 5-HETE present is calculated accordingly.
IC50 values are defined as the concentrations of test agents which caused a 50% inhibition of the formation of 5-HETE as compared to control and are determined by inspection of the concentration-response curves.
5-Lipoxygenase Assay Using Isolated Human Leukocytes (5LOA2)
The formation of 5-HETE in human leukocytes is considered a measure of 5-lipoxygenase activity. The protocol is described in the following. […]

[2] = biological target: Human Leukocyte Lipoxygenase; assay: Human Leukocyte Lipoxygenase Assay (LDA-H); format: biochemical; conditions: for IC50: acetone-pentane powder enzyme, 234 nm, 24° C., 5 min preincubation, read-out: Concentration (M) for 50.0 % Inhibition, IC (LDAH)
Experimental: Human Leukocyte Lipoxygenase Assay (LDA-H)
Whole blood is collected from normal volunteers and spun in a refrigerated centrifuge for four minutes at 1°-6° C. at 3800 g. The buffy coat is manually separated and washed twice with chilled 0.83% NH4 Cl and centrifuged at 1000 RPM for ten minutes at 4° C. The white cell is suspended in culture media-EMEM supplemented with 6% Agamma human serum, tricine buffer, and neomycin and recentrifuged at 1000 g to yield a pellet containing the leukocytes used for the preparation of the acetone pentane powder.
The acetone-pentane powder is prepared utilizing a modification of the procedure reported for human platelet lipoxygenase. See Siegel, et al, Arachidonate Metabolism via Lipoxygenase and 12-L-hydroperoxy-5 Eicosatetraenoic Acid Peroxidase Sensitive to Antiinflammatory Drugs, Proc. Natl. Acad. Sci., USA 77: 308, 1980 and D. P. Wallach and V. R. Brown, A Novel Preparation of Human Platlet Lipoxygenase, Biochem. Biophys. Acta. 663: 361, 1981. Buffy coat prepared above is resuspended in 5-7 volumes of cold 0.1M Tris buffer, pH 7.4 containing 0.154M NaCl. The suspension is centrifuged at 13,300 g for ten minutes at 4° C. The resultant pellet is retained, resuspended in five volumes of cold acetone, recentrifuged at 13,300 g and resuspended in five volumes of cold pentane. The pentane suspension is centrifuged for ten minutes at 13,300 g to give a pellet which is dried in the cold under vacuum with periodic pulverization. The dry powder is stable for several weeks when stored at -80° C.
Enzyme stock solution is prepared in the following manner. About 15 mg of the acetone-pentane powder is suspended in 4 ml of cold tris buffer (0.1M, pH 7.4), allowed to stand for five minutes, and homogenized thoroughly. The homogenate is sonicated three times for 15 seconds each time, diluted to 7 ml with cold tris buffer (0.1M, pH 7.4), and centrifuged at 4° C. for 60 minutes at 13,300 g. the supernatent is retained and diluted to a total of 10 ml with cold tris buffer (0.1M, pH 7.4) to give the stock enzyme solution. Additional dilutions of 2-50 fold are done as necessary to locate optimal enzyme reaction rate in the assay described below.
Substrate solution is prepared at 100 μM or 1.0 μM concentrations of arachidonic acid or linoleic acid in 0.1M tris buffer, pH 9.0 containing 20% ethanol.
The enzyme reaction is followed spectrophotometrically by the appearance of a conjugated diene product at 234 nm. The reaction is monitored at 24° C. using a Gilford Model 2600 spectrophotometer. […] The effects of inhibitors on the reaction are compared with control reactions run under indentical conditions. Routinely, each compounds of the present invention is incubated with the enzyme for five minutes prior to addition of substrate to initiate the reaction. Inhibition expressed as IC50 as molar concentration of the compound required to reduce reaction rate to 50% control.

Row | SMILES | IC50 [1] | IC50 [2] | % Inhibition (LDAH) ([2]; Concentration 2.50 E -5 M)
1 | O=C(Nc1ccc(CCc2ccc(O)c(O)c2)cc1)C(=O)C1=C(O)c2ccccc2S(=O)(=O)C1 [Example 6, N-[4-[2-(3,4-Dihydroxyphenyl)ethyl]phenyl]-4-hydroxy-α-oxo-2H-1-benzothiopyran-3-acetamide, 1,1-dioxide] | 2e-05 M and 2.1e-05 M |  | 
2 | COc1cc(CCc2ccc(NC(=O)C3=C(O)c4ccccc4S(=O)(=O)C3)cc2)ccc1O [Example 70, 2H-1-Benzothiopyran-3-carboxamide, 4-hydroxy-N-[4-[2-(4-hydroxy-3-methoxyphenyl)ethyl]phenyl]-, 1,1-dioxide] | 5e-06 M |  | 
3 | COc1cc(C=Cc2ccc(NC(=O)C3=C(O)c4ccccc4S(=O)(=O)N3C)cc2)ccc1O [Example 87, 2H-1,2-Benzothiazine-3-carboxamide, 4-hydroxy-N-[4-[2-(4-hydroxy-3-methoxyphenyl)ethenyl]phenyl]-2-methyl, 1,1-dioxide] | 4e-07 M |  | 
4 | COc1ccc(CCc2ccc(NC(=O)C3Oc4cc5ccccc5cc4C3=O)cc2)cc1OC (stereo not shown) [Example 101, Naphtho[2,3-b]furan-2-carboxamide, N-[4-[2-(3,4-dimethoxyphenyl)ethyl]phenyl]-2,3-dihydroxy-3-oxo] | 8.5e-06 M |  | 0.0%
5 | COc1ccc(CCc2ccc(NC(=O)C(=O)c3oc4ccccc4c3O)cc2)cc1OC [Example 121, 2-Benzofuranacetamide, N-[4-[2-(3,4-dimethoxyphenyl)ethyl]phenyl]-3-hydroxy-α-oxo] | 7.6e-06 M | 1.6e-06 M | 
6 | O=C(Nc1ccc(CCc2ccc(O)c(O)c2)cc1)c1oc2ccccc2c1O [Example 124, 2-Benzofurancarboxamide, N-[4-[2-(3,4-dihydroxyphenyl)ethyl]phenyl]-3-hydroxy] | 4.2e-06 M | 6.5e-06 M | 
7 | O=C(Nc1ccc(CCc2ccc(Cl)cc2)cc1)c1sc2ccccc2c1O [Example 145, Benzo[b]thiophene-2-carboxamide, N-[4-[2-(4-chlorophenyl)ethyl]phenyl]-3-hydroxy] | 1.21e-05 M |  | 
8 | O=C(Nc1ccc(CCc2ccc(O)c(O)c2)cc1)C(=O)C1=C(O)c2ccccc2OC1 [Example 150] | 1.8e-06 M | 4.7e-06 M | 
9 | COc1ccc(CCc2ccc(NC(=O)c3oc4c5ccccc5n(C)c4c3O)cc2)cc1OC [Example 161, 4H-Furo[3,2-b]indole-2-carboxamide, N-[4-[2-(3,4-dimethoxyphenyl)ethyl]phenyl]-3-hydroxy-4-methyl] | 9e-06 M |  | 

The remaining lines, values ahead:

Row | IC50 [1] | IC50 [2] | % Inhibition (LDAH) ([2]; Concentration 2.50 E -5 M) | SMILES
10 | 7e-07 M | 8.2e-06 M |  | O=C(Nc1ccc(CCc2ccc(O)c(O)c2)cc1)C1=C(O)c2ccccc2S(=O)(=O)C1 [Example 21, N-[4-[2-(3,4-Dihydroxyphenyl)ethyl]phenyl]-4-hydroxy-2H-1-benzothiopyran-3-carboxamide, 1,1-dioxide]
11 | 6.04e-06 M and 6.35e-06 M |  |  | COc1cc(CCc2ccc(NC(=O)C3Oc4ccc5ccccc5c4C3=O)cc2)ccc1O (stereo not shown) [Example 110, Naphtho[2,1-b]furan-2-carboxamide, N-[4-[2-(4-hydroxy-3-methoxyphenyl)ethyl]phenyl]-1,2-dihydro-1-oxo]
12 | 7.6e-07 M | 2.3e-06 M |  | O=C(Nc1ccc(CCc2ccc(O)c(O)c2)cc1)c1oc2ccc3ccccc3c2c1O [Example 122, Naphtho[2,1-b]furan-2-carboxamide, N-[4-[2-(3,4-dihydroxyphenyl)ethyl]phenyl]-1-hydroxy-]
13 | 4.01e-06 M | 6.1e-06 M |  | O=C(Nc1ccc(CCc2ccc(O)c(O)c2)cc1)c1oc2c(ccc3ccccc32)c1O [Example 125, Naphtho[1,2-b]furan-2-carboxamide, N-[4-[2-(3,4-dihydroxyphenyl)ethyl]phenyl]-3-hydroxy]
14 | 3.55e-06 M and 2.17e-06 M |  |  | O=C(Nc1ccc(CCc2ccc(O)c(O)c2)cc1)C(=O)C1Oc2ccccc2C1=O (stereo not drawn) [Example 126, 2-Benzofuranacetamide, N-[4-[2-(3,4-Dihydroxyphenyl)ethyl]phenyl]-2,3-dihydro-α,3-dioxo-]
15 | 5e-07 M | 1.6e-06 M |  | O=C(Nc1ccc(CCc2ccc(O)c(O)c2)cc1)C(=O)C1Oc2cc3ccccc3cc2C1=O (stereo not shown) [Example 129]
16 | 4.8e-06 M |  |  | COc1ccc2c(c1)c1c(n2-c2ccccc2)C(=O)C(C(=O)Nc2ccc(CCc3ccc(OC)c(OC)c3)cc2)O1 (stereo not shown) [Example 158]
17 | 1.18e-06 M |  |  | Cn1c2ccccc2c2oc(C(=O)Nc3ccc(CCc4ccc(O)c(O)c4)cc3)c(O)c21 [Example 159, 4H-Furo[3,2-b]indole-2-carboxamide, N-[4-[2-(3,4-Dihydroxyphenyl)ethyl]phenyl]-3-hydroxy-4-methyl]
